Here are results for five molecules from US8754242B2, “Herbicides” (Syngenta Crop Protection LLC, priority 2007, dated 2014).

SMILES strings stand for the structures.

Common to all, as to type: in vivo
The test system of assay [1] is Alopecurus myosuroides (ALOMY). The assay can be described thus: Test Example 1 pre-emergence herbicidal activity. The settings on record: rate 250 g/ha, evaluated 20 days later; for pest or weed control at 250 g/ha: Alopecurus myosuroides, 480 h, read-out: Pre-emergence activity ALOMY (100=total damage to plant; 0=no damage to plant). The protocol:
(§1) Monocotyledonous and dicotyledonous test plants were sown in standard soil in pots. After cultivation for one day (pre-emergence) or after 10 days cultivation (post-emergence) under controlled conditions in a glasshouse, the plants were sprayed with an aqueous spray solution derived from the formulation of the technical active ingredient in 0.6 ml acetone and 45 ml formulation solution containing 10.6% Emulsogen EL (Registry number 61791-12-6), 42.2% N-methylpyrrolidone, 42.2% dipropylene glycol monomethyl ether (Registry number 34590-94-8) and 0.2% X-77 (Registry number 11097-66-8). The test plants were then grown in a greenhouse under optimum conditions until, 15 days later for post-emergence and 20 days for pre-emergence, the test was evaluated (100=total damage to plant; 0=no damage to plant).
(§2) Alopecurus myosuroides (ALOMY), Avena fatua (AVEFA), Lolium perenne (LOLPE), Setaria faberi (SETFA), Digitaria sanguinalis (DIGSA), Echinochloa crus-galli (ECHCG)

Assay [2] has as its system Avena fatua (AVEFA). The assay can be described thus: Test Example 1 pre-emergence herbicidal activity. The settings on record: rate 250 g/ha, evaluated 20 days later; for pest or weed control at 250 g/ha: Avena fatua, 480 h, read-out: Pre-emergence activity AVEFA (100=total damage to plant; 0=no damage to plant). The protocol: as §1, §2
Assay [3] relates to Digitaria sanguinalis (DIGSA). The assay can be described thus: Test Example 1 pre-emergence herbicidal activity. The settings on record: Digitaria sanguinalis, 480 h, rate 250 g/ha, evaluated 20 days later, read-out: Pre-emergence activity DIGSA (100=total damage to plant; 0=no damage to plant). The protocol: as §1, §2
The subject of assay [4] is Echinochloa crus-galli (ECHCG). The assay can be described thus: Test Example 1 pre-emergence herbicidal activity. The settings on record: Echinochloa crus-galli, 480 h, rate 250 g/ha, evaluated 20 days later, read-out: Pre-emergence activity ECHCG (100=total damage to plant; 0=no damage to plant). How it is done:
as §1, §2

The subject of assay [5] is Lolium perenne (LOLPE). The assay can be described thus: Test Example 1 pre-emergence herbicidal activity. The settings on record: Lolium perenne, 480 h, rate 250 g/ha, evaluated 20 days later, read-out: Pre-emergence activity LOLPE (100=total damage to plant; 0=no damage to plant). How it is done:
as §1, §2

Assay [6] relates to Setaria faberi (SETFA). The assay can be described thus: Test Example 1 pre-emergence herbicidal activity. The settings on record: Setaria faberi, 480 h, rate 250 g/ha, evaluated 20 days later, read-out: Pre-emergence activity SETFA (100=total damage to plant; 0=no damage to plant). The protocol: as §1, §2
The test system of assay [7] is Alopecurus myosuroides (ALOMY). The assay can be described thus: Test Example 1 post-emergence herbicidal activity. The settings on record: 360 h, rate 125 g/ha, evaluated 15 days later, read-out: Post-emergence activity ALOMY (100=total damage to plant; 0=no damage to plant). The protocol:
as §1, §2

Assay [8] concerns Avena fatua (AVEFA). The assay can be described thus: Test Example 1 post-emergence herbicidal activity. The settings on record: 360 h, rate 125 g/ha, evaluated 15 days later, read-out: Post-emergence activity AVEFA (100=total damage to plant; 0=no damage to plant). The protocol:
as §1, §2

The subject of assay [9] is Digitaria sanguinalis (DIGSA). The assay can be described thus: Test Example 1 post-emergence herbicidal activity. The settings on record: 360 h, rate 125 g/ha, evaluated 15 days later, read-out: Post-emergence activity DIGSA (100=total damage to plant; 0=no damage to plant). The protocol:
as §1, §2

Assay [10] deals with Echinochloa crus-galli (ECHCG). The assay can be described thus: Test Example 1 post-emergence herbicidal activity. The settings on record: 360 h, rate 125 g/ha, evaluated 15 days later, read-out: Post-emergence activity ECHCG (100=total damage to plant; 0=no damage to plant). The protocol:
as §1, §2

The test system of assay [11] is Lolium perenne (LOLPE). The assay can be described thus: Test Example 1 post-emergence herbicidal activity. The settings on record: 360 h, rate 125 g/ha, evaluated 15 days later, read-out: Post-emergence activity LOLPE (100=total damage to plant; 0=no damage to plant). The protocol:
as §1, §2

Assay [12] has as its system Setaria faberi (SETFA). The assay can be described thus: Test Example 1 post-emergence herbicidal activity. The settings on record: 360 h, rate 125 g/ha, evaluated 15 days later, read-out: Post-emergence activity SETFA (100=total damage to plant; 0=no damage to plant). How it is done:
as §1, §2

On to `Cc1cc(C)c(C2=C(O)[C@H]3[C@@H](C2=O)[C@@H]2CC[C@@]3(C)O2)c(C)c1` (racemic) [Example T9], for which the “Pre-emergence activity ALOMY (100=total damage to plant; 0=no damage to plant)” value in assay [1] came to 70. Also, the “Pre-emergence activity AVEFA (100=total damage to plant; 0=no damage to plant)” value in [2] is reported as 40. The pest or weed control at 250 g/ha in assay [3], in assay [4], in assay [5] and in [6] was 100% throughout. Also, the pest or weed control at 125 g/ha stood at 80% in assay [7]; 60% in assay [8]; 100% in assay [9]; 100% in assay [10]; 70% in assay [11]; 80% in assay [12].
For the molecule `CCc1cc(C)cc(CC)c1C1=C(O)[C@H]2[C@@H](C1=O)[C@@H]1C=C(C#C[Si](C)(C)C)[C@H]2O1` (racemic) [Example T11], the pest or weed control at 250 g/ha in assay [1] came out at 30%; in assay [2], 40%; in assay [3], 0%; in assay [4], 30%; in assay [5], 60%; in [6], 20%. Also, the pest or weed control at 125 g/ha worked out at 40% in [7]; 20% in assay [8]; 80% in assay [9]; 70% in assay [10]; 30% in assay [11]; 70% in assay [12].
As for `CCc1cc(C)cc(CC)c1C1=C(O)[C@H]2[C@@H](C1=O)[C@@H]1C=C[C@@]2(CO)O1` (racemic) [Example T13], the pest or weed control at 250 g/ha in assay [1] was determined as 80%; in assay [2], 80%; in assay [3], 100%; in assay [4], 100%; in assay [5], 90%; in assay [6], 100%. For the same molecule, the pest or weed control at 125 g/ha in [7] was 80%; in assay [8] it was 90%; in [9], 50%; in assay [10], 100%; in [11] it was 90%; in [12], 100%.
For `Cc1cc(C)c(C2=C(O)[C@H]3[C@@H](C2=O)[C@@H]2C=C[C@@]3(CO)O2)c(C)c1` (racemic) [Example T37], the pest or weed control at 250 g/ha in [1] was 60%; in assay [2], 30%; in assay [3], 20%; in [4], 30%; in assay [5], 30%; in [6], 0%. For the same molecule, the pest or weed control at 125 g/ha in [7] is 50%; in assay [8], 20%; in assay [9], 50%; in assay [10], 80%; in [11] it was 20%; in assay [12] it was 70%.
`CSC[C@]12C=C[C@H](O1)[C@@H]1C(=O)C(c3c(C)cc(C)cc3C)=C(O)[C@@H]12` (racemic) [Example T41]: the pest or weed control at 250 g/ha in assay [1] came out at 50%; in assay [2], 30%; in [3], 30%; in assay [4], 70%; in [5] it was 20%; in assay [6], 60%. The pest or weed control at 125 g/ha in assay [7] is 40%; in [8], 0%; in assay [9] it was 80%; in assay [10], 80%; in assay [11], 0%; in assay [12], 80%.
